Data reported in ChEMBL document CHEMBL1127720, “Adamantane and Nipecotic Acid Derivatives as Novel -Turn Mimics” (Bioorg Med Chem Lett, 1994).

Legend:
[1] = biological target: T1, Integrin alpha-IIb/beta-3 (Homo sapiens) (UniProt P05106+P08514); experiment: Percent inhibition of platelet aggregation at 50 uM; format: functional
[2] = biological target: T1, Integrin alpha-IIb/beta-3 (Homo sapiens); experiment: Inhibition of Fibrinogen Receptor at 50 uM; format: protein-complex assay
[3] = biological target: T1, Integrin alpha-IIb/beta-3 (Homo sapiens); experiment: Percent inhibition of platelet aggregation at 20 uM; format: functional

inhibition [1] [%] | inhibition [2] [%] | inhibition [3] [%] | SMILES
86 | – | – | CC(=O)N[C@@H](CCCCN)C(=O)N1CCCC(C(=O)NCCC(=O)O)C1 (some centres undefined)
– | 44 | 40 | CC(C)(C)OC(=O)NC(CCCCN)C(=O)NC12CC3CC(CC(NCC(=O)O)(C3)C1)C2 (centres undefined)
– | 24 | – | CC(=O)N[C@@H](CCCCN)C(=O)N1CCCC(C(=O)NCC(=O)O)C1 (some centres undefined)
